One data set relates to MMTV/c-Neu mice. The experiment in a line: Anti-metastatic effect on MMTV/c-Neu mice breast cancer model. It counts as in vivo. As to conditions: for β-casein mRNA expression level in the lung: 43.6 mg/kg intraperitoneally every other day, Example 61 three weeks, Example 3 ten weeks. As for the experimental part:
Anti-metastatic Effect on MMTV/c-Neu mice breast cancer model MMTV/c-Neu female transgenic mice were purchased from Jackson Laboratory (Bar Harbor, Me., USA). Animals were maintained in a temperature-controlled SPF room (22° C.) and supplied with food and water ad libitum. In Experiment 1, Example 61 (43.6 mg/kg) dissolved in saline was given to thirty two-week-old MMTV/c-Neu mice intraperitoneally every other day for three weeks. […] Mice were sacrificed at 24 h after the last dosing, and tissues of mammary tumor and lung were analyzed by hematoxylin and eosin (H&E) staining To analyse β-casein mRNA level in tissues of mammary tumor and lung, total RNAs were isolated from these tissues using TRIzol reagent (Invitrogen Corporation) and RNeasy Mini kit (Qiagen) according to the manufacturer's instruction. The cDNAs were synthesized from 2 μg of total RNAs using random primer (Invitrogen Corporation) by MMLV RTase (Invitrogen Corporation) for 1 h at 37° C. and subjected to PCR amplification using Taq polymerase (Promega) and following gene-specific primers: mouse GAPDH (forward) 5′-[…]-3′ and (reverse) 5′-[…]-3′, mouse β-casein (forward) 5′-[…]-3′ and (reverse) 5′-[…]-3′. Amplified DNA was analyzed by agarose gel electrophoresis.
Activity of MMP-9 and MMP-2 in the primary mammary tumor was measured by gelatin zymography. Tumor tissues from mice (30 mg) was lysed in 500 μL RIPA buffer (50 mM Tris, 150 mM NaCl, 0.1% sodium dodecyl sulfate, 0.5% sodium deoxycholate, 1% NP-40, protease inhibitor without EDTA) for 10-20 min on ice. Lysates were cleared by centrifugation at 13000 rpm at 4° C. for 10 min. Protein content of supernatants was determined using Micro-BCA protein assay kit (Thermo Scientific). Loading samples were prepared by adding loading buffer (0.5 M Tris, pH 6.8, 50% glycerol, 10% SDS, and 1% bromophenol blue solution) into lysates containing 15 μg of total protein. Loading samples were heated at 60° C. for 5 min and separated by electrophoresis on 10% polyacrylamide gel containing 0.2% gelatin. Gel was washed twice with washing buffer [2.5% Triton-X100, 0.05 M Tris-HCl, pH 7.5, and 0.1 M NaCl] for 30 min at room temperature. […] Gel image was obtained using a densitometer LAS-3000 imager (FUJIFILM) in cybergreen mode.

Data set [1] has as its system BALB/c 4T1 xenografted mice. The experiment in a line: Anti-metastatic effect on BALB/c 4T1 xenografted mice model. As to conditions: Example 3 13.6 or 27.3 mg/kg orally BID, four weeks; Example 2 5, 10, 20, or 40 mg/kg orally; Example 61 43.6 mg/kg intraperitoneally every other day, 2.5 weeks. It counts as in vivo. As for the experimental part: Female BALB/c mice were purchased from Orient Bio Inc. (Seoul, Korea). Animals were maintained in a temperature-controlled room (22° C.) and supplied with food and water ad libitum. 4T1 cells (1.2×10^4 cells) were suspended in PBS and implanted into the left #4 mammary fat pad of five to six-week-old female BALB/c mice (day 0). In Experiment 1, treatment was started after tumor implantation (day 0). […] In Experiment 2, treatment was started on day 4. […] In Experiment 3, treatment was started on day 4. […] In Experiment 4, 4T1 cells (1×10^4 cells) were suspended in PBS and implanted into the left #4 mammary fat pad of ten-week-old female BALB/c mice (day 0). Treatment was started on day 10. Example 61 (43.6 mg/kg) dissolved in saline was given to mice intraperitoneally every other day for 2.5 weeks. In all Experiments, mice were sacrificed at 24 to 72 h after the last dosing, and 15% India ink solution (Hardy Diagnostics) in PBS was immediately injected into the trachea. […] Number of metastatic nodule was counted on the surface of left lobe of lung, and picture of lung was taken with digital camera. The tumor size was measured using calipers, and the tumor volume was calculated by using the following equation: Tumor volume=(0.5236)×(width)^2×(length)
Either vehicle buffer (4 mM HCl, 1 mg/mL BSA) or TGF-β1 (50 ng/mouse) in vehicle buffer was given to mice intravenously at 2 h before mice were sacrificed. Tumor tissues from mice were lysed in RIPA buffer [50 mM Tris, pH 7.5, 150 mM NaCl, 0.1% sodium dodecyl sulfate, 0.5% sodium deoxycholate, 1% NP-40, 1 mM NaF, 1 mM Na3VO4, 1 mM PMSF, a protease inhibitor cocktail (1 tablet of Roche Diagnostics GmbH protease inhibitor cocktail/10 mL) (Roche)] for 20 min on ice. Lysates were cleared by centrifugation at 13000 rpm at 4° C. for 20 min. Protein content of supernatants was determined using Micro-BCA (bicinchoninic acid) protein assay kit (Thermo Scientific). Lysates containing 20-50 μg total protein were separated by electrophoresis on polyacrylamide gel and then electrophoretically transferred to polyvinylidene difluoride transfer membranes (Millipore, Billerica, Mass., USA). Membranes were blocked with 5% BSA (Sigma-Aldrich) in PBS containing 0.5% Tween-20 (PBST) for 1 h and incubated overnight at 4° C. with one of following antibodies: anti-phospho-Smad2 (Millipore), anti-Smad2/3 (BD Transduction Laboratories, NJ, USA), or anti-β-actin (Sigma-Aldrich) in PBST containing 1% BSA. […] Bound antibodies were detected using Western Blotting Luminol Reagent (SantaCruz Biotechnology). Band intensities were analyzed using a densitometer LAS-3000 imager (FUJIFILM, Tokyo, Japan).

In data set [2] the test system is bile duct-ligated (BDL) rats. Put plainly: Anti-fibrotic effect on bile duct-ligated liver fibrosis model. The format is in vivo. As to conditions: for Body weight / Organ weight Liver / Organ weight Liver/Body / Organ weight Spleen / Organ weight Spleen/Body: mean ± S.E.
For the next data set, the target named is ALK5 (Homo sapiens (Human), UniProt P36897). Put plainly: Cell-free assay for inhibition of ALK5 kinase phosphorylation. The format is biochemical.
Sequence of ALK5 (P36897 34-503): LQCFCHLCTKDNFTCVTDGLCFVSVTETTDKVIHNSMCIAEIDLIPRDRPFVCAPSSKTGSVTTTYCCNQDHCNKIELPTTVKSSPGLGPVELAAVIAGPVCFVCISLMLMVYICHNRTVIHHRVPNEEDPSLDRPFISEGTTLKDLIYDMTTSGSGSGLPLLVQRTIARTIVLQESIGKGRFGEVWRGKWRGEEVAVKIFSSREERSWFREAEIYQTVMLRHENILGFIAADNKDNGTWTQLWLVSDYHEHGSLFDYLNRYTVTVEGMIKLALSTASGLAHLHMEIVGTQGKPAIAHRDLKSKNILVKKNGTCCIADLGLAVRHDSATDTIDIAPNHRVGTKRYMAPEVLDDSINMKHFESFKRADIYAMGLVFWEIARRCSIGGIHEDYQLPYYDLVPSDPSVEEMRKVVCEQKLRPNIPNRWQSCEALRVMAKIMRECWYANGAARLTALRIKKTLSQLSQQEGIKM
The next data set deals with Tramp C2. As to conditions: mice treated with murine prostate cancer cell line Tramp C2; cited from earlier work.
The next data set has as its system UUO rats. As to conditions: cited from earlier work.
Data set [3] concerns SBE-luc and GFAP-luc mice immunized with MOG35-55. As to conditions: cited from earlier work.
The test system of another data set is rats. As to conditions: cited from earlier work.
The mark [4] stands for this setting: 43.6 mg/kg intraperitoneally every other day for ten weeks, gelatin zymography.
[5] abbreviates: BDL rats, 21.8 mg/kg orally three times per week for four weeks.
[6] abbreviates: BDL rats, 43.6 mg/kg orally three times per week for four weeks.
Where [7] appears, read: Sham-operated rats, 43.6 mg/kg orally three times per week for four weeks.
Where [8] appears, read: orally three times per week for four weeks, Example 2 5, 10, 20 mg/kg, Example 3 21.8, 43.6 mg/kg.
[9] abbreviates: orally three times per week for four weeks, Western blot.
The mark [10] stands for this setting: read-out: IC50 on ALK5 kinase phosphorylation.

Each structure is given as a SMILES string. Read-outs that look alike come from different tables or passages of the source. Marks after values point to notes of the source that are not given here.

Procedure for ALK5: ALK5 protein was expressed in Sf9 insect cells as human recombinant GST-fusion protein using the baculovirus expression system. Expressed protein was purified by affinity chromatography using GSH-agarose (Sigma-Aldrich). Kinase assay was performed in 96-well FlashPlates™ from Perkin Elmer (Boston, Mass., USA) in a 50 μL reaction volume. The reaction cocktail was pipetted in four steps in the following order: 20 μL of assay buffer (standard buffer), 5 μL of ATP solution in H2O, 5 μL of each test compounds of formula (I) in 10% DMSO, 10 μL of GSK3 (14-27) (200 ng)/10 μL of ALK5 solution (1 ng) (premixed). The reaction cocktail contained 60 mM HEPES-NaOH, pH 7.5, 3 mM MgCl2, 3 mM MnCl2, 3 Na3VO4, 1.2 mM DTT, 50 μg/mL PEG20000, 1 μM [γ-^33P]-ATP (approximately 2.5×10^5 cpm per well), 200 ng/10 μL GSK3 (14-27), and 1 ng/10 μL ALK5. The reaction cocktail was incubated at 30° C. for 60 min. The reaction was stopped with 50 μL of 2% (v/v) H3PO4, and plates were aspirated and washed two times with 200 μL 0.9% (w/v) NaCl. Assay was performed with a BeckmanCoulter Biomek 2000 robotic system. Incorporation of ^33Pi (counting of “cpm”) was determined with a microplate scintillation counter (Microbeta, Wallac).

Turning to `Cc1cccc(-c2[nH]c(CNc3cccc(C#N)c3)nc2-c2ccc3ncnn3c2)n1.Cl` [Example 61], the “number of metastastic lesions in the lung” value in the data set on MMTV/c-Neu mice (43.6 mg/kg intraperitoneally every other day for three weeks) is on record as “significantly reduced”. For the same compound, the “β-casein mRNA expression level in the lung” value in the data set on MMTV/c-Neu mice is “significantly inhibited”. The “number of metastastic nodules on the lung” value in data set [1] is listed as “significantly reduced”.
With `Cc1cccc(-c2[nH]c(CNc3ccccc3F)nc2-c2ccc3ncnn3c2)n1.Cl` [Example 3], in the data set on MMTV/c-Neu mice (setting [4]), the “activity of MMP-2 in the primary mammary tumor” value was “significantly inhibited” and the “activity of MMP-9 in the primary mammary tumor” value is recorded as “significantly inhibited”. Also, in the data set with MMTV/c-Neu mice, the “β-casein mRNA expression level in the lung” value is recorded as “significantly inhibited”. Also, in data set [2] (21.8 or 43.6 mg/kg orally three times per week for four weeks, Western blot), the “Smad signaling in BDL rat liver (pSmad3)” value was “inhibited”. In data set [2] (setting [5]), the Body weight was 340 ± 0.6 g, the “Organ weight Liver” value is given as 16.4 ± 0.72**^,## g, the “Organ weight Liver/Body” value is 4.85 ± 0.26**^,## % and the “Organ weight Spleen” value turned out to be 1.30 ± 0.07 g. The “Organ weight Spleen/Body” value in data set [2] (setting [5]) is 0.39 ± 0.03**^,## %. Besides, in data set [2] (setting [6]), the Body weight was 335 ± 8.4 g, the “Organ weight Liver” value was 16.1 ± 0.57**^,## g, the “Organ weight Liver/Body” value is 4.84 ± 0.26**^,## % and the “Organ weight Spleen” value worked out at 1.19 ± 0.09 g. The “Organ weight Spleen/Body” value in data set [2] (setting [6]) is given as 0.36 ± 0.03**^,## %. Further, in data set [2] (setting [7]), the Body weight is 354 ± 12.2 g, the “Organ weight Liver” value worked out at 11.8 ± 0.71 g, the “Organ weight Liver/Body” value was 3.34 ± 0.12% and the “Organ weight Spleen” value is 0.81 ± 0.04 g. The “Organ weight Spleen/Body” value in data set [2] (setting [7]) is recorded as 0.23 ± 0.01%. Also, the BDL-induced histological change result in data set [2] (liver, H&E staining) was “greatly abolished”. In data set [2] (setting [8]), the “body weight loss in BDL rats” value was “recovered”; the “organ (liver and spleen) weight in BDL rats” value is given as “decreased”; the “serum ALT in BDL rats” value is recorded as “improved”; the “serum AST in BDL rats” value was “improved”. For the same compound, in data set [2] (setting [9]), the “fibronectin in BDL rat liver” value was “suppressed”, the “vimentin in BDL rat liver” value is given as “suppressed” and the “α-SMA in BDL rat liver” value was “suppressed”. Also, the “number of metastastic nodules on the lung” value in data set [1] is on record as “significantly reduced”.
Take `Cc1cccc(-c2[nH]c(CNc3ccc(Cl)cc3)nc2-c2ccc3ncnn3c2)n1` [Example 14, N-((4-([1,2,4]triazolo[1,5-a]pyridin-6-yl)-5-(6-methylpyridin-2-yl)-1H-imidazol-2-yl)methyl)-4-chloroaniline]: the half-inhibitory concentration (IC50) – broadly, the concentration needed to halve the response being measured – on ALK5 (setting [10]) was found to be 10.7 nM.
Turning to `Cc1cccc(-c2[nH]c(CNc3ccccc3C(C)C)nc2-c2ccc3ncnn3c2)n1` [Example 33, N-((4-([1,2,4]triazolo[1,5-a]pyridin-6-yl)-5-(6-methylpyridin-2-yl)-1H-imidazol-2-yl)methyl)-2-isopropylaniline], the 50% inhibitory concentration (IC50) at ALK5 (setting [10]) came out at 14.2 nM.
Take `Cc1cccc(-c2[nH]c(COc3ccccc3F)nc2-c2ccc3ncnn3c2)n1` [Example 149, 6-(2-((2-fluorophenoxy)methyl)-5-(6-methylpyridin-2-yl)-1H-imidazol-4-yl)-[1,2,4]triazolo[1,5-a]pyridine]: the half-inhibitory concentration (IC50) on ALK5 (setting [10]) is 25.4 nM.
Still for that read-out and setting: to `Cc1cccc(-c2[nH]c(CNc3ccccc3C(N)=O)nc2-c2ccc3ncnn3c2)n1` [Example 65, 2-((4-([1,2,4]triazolo[1,5-a]pyridin-6-yl)-5-(6-methylpyridin-2-yl)-1H-imidazol-2-yl)methylamino)benzamide] belongs 29.7 nM.
Compound `Cc1cccc(-c2[nH]c(CNc3ccccc3C#N)nc2-c2ccc3ncnn3c2)n1` [Example 59, 2-((4-([1,2,4]triazolo[1,5-a]pyridin-6-yl)-5-(6-methylpyridin-2-yl)-1H-imidazol-2-yl)methylamino)benzonitrile] yielded an IC50 against ALK5 of 19.5 nM.
With `COCc1ccc(NCc2nc(-c3ccc4ncnn4c3)c(-c3cccc(C)n3)[nH]2)cc1` [Example 50, N-((4-([1,2,4]triazolo[1,5-a]pyridin-6-yl)-5-(6-methylpyridin-2-yl)-1H-imidazol-2-yl)methyl)-4-(methoxymethyl)aniline], the IC50 at ALK5 (setting [10]) worked out at 50.7 nM.
As for `Cc1cccc(-c2[nH]c(CNc3cccc(NS(C)(=O)=O)c3)nc2-c2ccc3ncnn3c2)n1` [Example 78, N-(3-((4-([1,2,4]triazolo[1,5-a]pyridin-6-yl)-5-(6-methylpyridin-2-yl)-1H-imidazol-2-yl)methylamino)phenyl)methanesulfonamide], the IC50 on ALK5 (setting [10]) amounted to 15.1 nM.
Still for that read-out and setting: under `Cc1cccc(-c2[nH]c(CNc3cccc(Cl)c3)nc2-c2ccc3ncnn3c2)n1` [Example 12, N-((4-([1,2,4]triazolo[1,5-a]pyridin-6-yl)-5-(6-methylpyridin-2-yl)-1H-imidazol-2-yl)methyl)-3-chloroaniline] stands 6.16 nM; under `COc1cccc(NCc2nc(-c3ccc4ncnn4c3)c(-c3cccc(C)n3)[nH]2)c1OC` [Example 45, N-((4-([1,2,4]triazolo[1,5-a]pyridin-6-yl)-5-(6-methylpyridin-2-yl)-1H-imidazol-2-yl)methyl)-2,3-dimethoxyaniline], 57.5 nM.
With `Cc1cccc(-c2[nH]c(Cc3cccc(C(N)=O)c3)nc2-c2ccc3nccnc3c2)n1` [IN-1130], the tumor volume entry in the data set with Tramp C2 is listed as “dramatically reduces”. Besides, the “renal fibrosis induced by unilateral ureteral obstruction (UUO)” value with UUO rats is on record as “effectively suppresses”. The “experimental autoimmune encephalomyelitis (EAE)” value in data set [3] is on record as “ameliorates”. In the data set on rats, the penile curvature result is recorded as “corrects” and the tunical fibrosis result is “lessens”.
Regarding `Cc1cccc(-c2[nH]c(CNc3ccc(C(C)C)cc3)nc2-c2ccc3ncnn3c2)n1` [Example 35, N-((4-([1,2,4]triazolo[1,5-a]pyridin-6-yl)-5-(6-methylpyridin-2-yl)-1H-imidazol-2-yl)methyl)-4-isopropylaniline], the half-inhibitory concentration (IC50) on ALK5 (setting [10]) was determined as 46 nM.
